# Reference: PubChem BioAssay AID651989 (The Scripps Research Institute Molecular Screening Center, 2013)
# The source made the active and inactive calls. No rule for the calls is given here.
# Target: methionyl-tRNA synthetase (Trypanosoma brucei brucei) (UniProt Q38C91)
# Assay: inhibition of trypanosome methionyl-tRNA synthetase – biochemical, fluorescence polarization, orthogonal assay for T. brucei MetRS inhibitor project, dose response (AID 651989)
# Chain of methionyl-tRNA synthetase (Trypanosoma brucei brucei) (Q38C91 1-773): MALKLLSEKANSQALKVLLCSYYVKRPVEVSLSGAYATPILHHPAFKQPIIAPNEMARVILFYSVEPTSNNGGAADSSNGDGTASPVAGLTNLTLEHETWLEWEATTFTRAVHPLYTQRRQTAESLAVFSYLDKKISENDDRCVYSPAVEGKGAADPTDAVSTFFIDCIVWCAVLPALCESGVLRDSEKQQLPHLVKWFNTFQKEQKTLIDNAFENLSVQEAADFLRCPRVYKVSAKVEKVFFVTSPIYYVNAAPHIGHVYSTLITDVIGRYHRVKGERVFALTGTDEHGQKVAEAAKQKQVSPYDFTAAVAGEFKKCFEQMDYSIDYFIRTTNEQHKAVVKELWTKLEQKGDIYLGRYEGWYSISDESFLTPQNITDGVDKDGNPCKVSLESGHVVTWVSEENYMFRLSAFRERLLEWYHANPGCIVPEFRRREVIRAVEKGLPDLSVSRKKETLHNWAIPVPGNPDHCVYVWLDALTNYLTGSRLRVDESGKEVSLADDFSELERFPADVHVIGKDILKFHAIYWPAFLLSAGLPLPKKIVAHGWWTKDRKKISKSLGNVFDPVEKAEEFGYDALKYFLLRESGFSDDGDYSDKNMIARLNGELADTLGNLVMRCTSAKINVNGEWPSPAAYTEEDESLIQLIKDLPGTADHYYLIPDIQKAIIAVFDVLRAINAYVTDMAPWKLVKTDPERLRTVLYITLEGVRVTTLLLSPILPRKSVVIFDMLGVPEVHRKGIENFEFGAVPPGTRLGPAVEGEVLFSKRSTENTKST
row,Structure (SMILES),IC50
1,O=C(NCc1cc(Br)cc(Br)c1OC(=O)c1ccccc1[N+](=O)[O-])c1ccccc1,> 119 µM (inactive)
2,Cc1ccc(C(=O)Nn2c(O)c(C=C3N=c4ccccc4=N3)sc2=S)cc1,> 119 µM (inactive)
3,Cc1cc2c(c(=O)n1CC1CCCO1)C(c1ccc3c(c1)OCO3)C(C#N)=C(N)O2 (stereo not drawn),> 119 µM (inactive)
4,N#Cc1ccccc1CSc1ccc(-c2nc3ccccc3[nH]2)cn1,> 119 µM (inactive)
5,Clc1ccccc1-c1ccc2ncnc(NCc3ccc4c(c3)OCO4)c2c1,inactive
6,O=C(Cc1ccc(Br)cc1)NNC(=O)Nc1ccc(Cl)cc1,> 119 µM (inactive)
7,COc1cc(OC)c(OC)cc1/C=N/Nc1nc2ccccc2[nH]1,> 119 µM (inactive)
8,CO/N=C(\c1nonc1N)N1CCN(c2ccc(Cl)cc2[N+](=O)[O-])CC1,> 119 µM (inactive)
9,Cc1cc(Cl)ccc1OCCCC(=O)NNC(=O)c1ccccc1O,> 119 µM (inactive)
10,N#Cc1ccccc1CSc1nc2ncc(Br)cc2[nH]1,> 119 µM (inactive)
11,O=C(OCC(=O)c1c[nH]c2ccccc12)c1ccc(OC(F)F)cc1,> 119 µM (inactive)
12,COc1ccc(NC(=O)COC(=O)CCCOc2ccc(Cl)cc2Cl)cc1,> 119 µM (inactive)
13,COc1ccc(CC(=O)OCC(=O)Nc2ccc(Br)cc2)cc1,> 119 µM (inactive)
